Like-named read-outs stand apart in the source and are kept apart here.

For assay [1], the target named is T1, phospholipase A2 (PLA2) (Bos taurus, UniProt P00593).
T1 construct: purchased Aldrich-Sigma
In words: Drug release by phospholipase A2 (bovine). It counts as biochemical. Conditions: bovine PLA2, 37° C., pH 8.8, Triton X-100. The text has this:
All PLA2s were from Aldrich-Sigma. […] The flask was placed under high vacuum overnight.

Assay [2] deals with phospholipase A2 (PLA2). Conditions: for release of all-trans retinoic acid from SML7a: pH 8.8, Triton X-100. As to the method: Retinoic acid was used as the model drug for the investigation of enzyme triggered drug release. The release of all-trans retinoic acid from SML7a (1-cholesteryl-2-all-trans-retinoyl-sn-glycerophosphocholine) was evaluated with phospholipase A2 (PLA2) from a variety of sources including bovine, naja mossambica, and streptomyces vialaceoruber. All PLA2s were from Aldrich-Sigma. A chloroform solution of SML7a (50 μmol) in 50 mL round-bottom flask was evaporated by the rotavapor. The flask was placed under high vacuum overnight. The lipid film was hydrated in 10 mL pH 8.8 buffer containing 20 mM Triton X-100, 10 mM CaCl2, 10 mM HEPES, and 50 mM KCl. […] Aliquots of the solution (250 μL) were preincubated at 37° C. for 10 minutes, then used for the PLA2 assay. Aliquots of PLA2 solution (25 units in 250 μL pH 8.8 buffer of 10 mM HEPES, and 50 mM KCl) were preincubated at 37° C. for 10 minutes, and mixed with the aliquots of pre-warmed solution of SML7a. At different time point, the hydrolysis samples were analyzed by TLC, and quantified by densimeter.

T1 sequence (P00593 23-145): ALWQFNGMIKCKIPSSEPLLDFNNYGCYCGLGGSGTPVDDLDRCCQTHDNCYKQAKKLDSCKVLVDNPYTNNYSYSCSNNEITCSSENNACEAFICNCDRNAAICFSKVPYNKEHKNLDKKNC

For the substance “1-cholesteryl-2-all-trans-retinoyl-sn-glycerophosphocholine [SML7a]”, the “release of all-trans retinoic acid from SML7a” value is listed as “completely release” on phospholipase A2 (PLA2) [1]; “completely release” in the assay with phospholipase A2 (PLA2) [2] (naja mossambica PLA2, 37° C.); “completely release” in the assay with phospholipase A2 (PLA2) [2] (streptomyces vialaceoruber PLA2, 37° C.). Further, in the assay with phospholipase A2 (PLA2) [2] (naja mossambica PLA2 compared with the two other PLA2), the “relative activity of the PLA2 on SML7a” value is listed as “highest activity”.

The values are drawn from patent US20110177156A1, “Sterol-Modified Amphiphilic Lipids” (priority 2007, published 2011).
